Reference: publication PMC9917560, “Design, Synthesis and Antimicrobial Evaluation of New N-(1-Hydroxy-1,3-dihydrobenzo[c][1,2]oxaborol-6-yl)(hetero)aryl-2-carboxamides as Potential Inhibitors of Mycobacterial Leucyl-tRNA Synthetase” (International Journal of Molecular Sciences, 2023)
Values after ≈ are worked out from the molar mass of the structure shown. Read-outs that look alike come from different tables or passages of the source.

Assays:
[1] = system: Mycolicibacterium aurum DSM 43,999 (ATCC 23366); test: Antimycobacterial microdilution (resazurin) vs M. aurum; format: cell-based; details: Middlebrook 7H9, resazurin, read-out: MIC M. aurum
[2] = system: Candida tropicalis CCM 8264 (ATCC 750); test: Antifungal microdilution broth (EUCAST); format: cell-based; details: read-out: MIC Candida tropicalis
[3] = system: Acinetobacter baumannii DSM 30007 (ATCC 19606); test: Antibacterial microdilution broth (EUCAST); format: cell-based; details: read-out: MIC Acinetobacter baumannii
[4] = system: HepG2 cell line; test: Cytotoxicity screening, CellTiter 96 assay; details: for IC50: Homo sapiens, HepG2, 24 h, read-out: IC50 HepG2; for toxicity to HepG2 up to highest tested concentration: tested up to 500 µM (2, 3), 250 µM (12, 17), 100 µM (6, 7, 11) because of solubility
[5] = system: Candida krusei CCM 8271 (ATCC 6258); test: Antifungal microdilution broth (EUCAST); format: cell-based; details: Pichia kudriavzevii, read-out: MIC Candida krusei
[6] = system: Staphylococcus epidermidis CCM 4418 (ATCC 12228); test: Antibacterial microdilution broth (EUCAST); format: cell-based; details: read-out: MIC Staphylococcus epidermidis
[7] = system: Klebsiella pneumoniae CCM 4415 (ATCC 10031); test: Antibacterial microdilution broth (EUCAST); format: cell-based; details: Klebsiella pneumoniae, read-out: MIC Klebsiella pneumoniae
[8] = system: Aspergillus fumigatus ATCC 204305; test: Antifungal microdilution broth (EUCAST); format: cell-based; details: Aspergillus fumigatus, read-out: MIC Aspergillus fumigatus
[9] = system: Pseudomonas aeruginosa CCM 3955 (ATCC 27853); test: Antibacterial microdilution broth (EUCAST); format: cell-based; details: read-out: MIC Pseudomonas aeruginosa
[10] = system: methicillin-resistant Staphylococcus aureus subsp. aureus (MRSA) CCM 4750 (ATCC 43300); test: microbe, parasite or virus in culture; format: cell-based; details: read-out: MIC Methicillin-resistant Staphylococcus aureus subsp. aureus
[11] = system: Mycobacterium tuberculosis H37Rv CNCTC My 331/88 (ATCC 27294); test: Microplate Alamar Blue assay vs Mtb H37Rv; format: cell-based; details: Mycobacterium tuberculosis, pH 6.6, MABA, Middlebrook 7H9 pH 6.6, recalculated from µg/mL; read-out: MIC Mtb H37Rv
[12] = system: Candida parapsilosis CCM 8260 (ATCC 22019); test: Antifungal microdilution broth (EUCAST); format: cell-based; details: Lodderomyces parapsilosis, read-out: MIC Candida parapsilosis
[13] = system: Mycobacterium avium DSM 44,156 (ATCC 25291); test: Antimycobacterial microdilution (resazurin) vs M. avium; format: cell-based; details: Mycobacterium avium, Middlebrook 7H9, resazurin; read-out: MIC M. avium
[14] = system: Mycobacterium tuberculosis H37Ra ITM-M006710 (ATCC 9431); test: Antimycobacterial microdilution (resazurin) vs Mtb H37Ra; format: cell-based; details: Middlebrook 7H9, resazurin, recalculated from µg/mL, read-out: MIC Mtb H37Ra
[15] = system: Staphylococcus aureus subsp. aureus CCM 4223 (ATCC 29213); test: Antibacterial microdilution broth (EUCAST); format: cell-based; details: read-out: MIC Staphylococcus aureus subsp. aureus
[16] = system: Mycobacterium kansasii DSM 44,162 (ATCC 12478); test: Antimycobacterial microdilution (resazurin) vs M. kansasii; format: cell-based; details: read-out: MIC M. kansasii
[17] = system: Lichtheimia corymbifera CCM 8077; test: Antifungal microdilution broth (EUCAST); format: cell-based; details: Lichtheimia corymbifera, read-out: MIC Lichtheimia corymbifera
[18] = system: Aspergillus flavus CCM 8363; test: Antifungal microdilution broth (EUCAST); format: cell-based; details: Aspergillus flavus, read-out: MIC Aspergillus flavus
[19] = system: Trichophyton interdigitale CCM 8377 (ATCC 9533); test: Antifungal microdilution broth (EUCAST); format: cell-based; details: Trichophyton interdigitale, read-out: MIC Trichophyton interdigitale
[20] = system: Mycolicibacterium smegmatis DSM 43,465 (ATCC 607); test: Antimycobacterial microdilution (resazurin) vs M. smegmatis; format: cell-based; details: Middlebrook 7H9, resazurin, read-out: MIC M. smeg.
[21] = system: Candida albicans CCM 8320 (ATCC 24433); test: Antifungal microdilution broth (EUCAST); format: cell-based; details: Candida albicans, read-out: MIC Candida albicans
[22] = system: Enterococcus faecalis CCM 4224 (ATCC 29212); test: Antibacterial microdilution broth (EUCAST); format: cell-based; details: read-out: MIC Enterococcus faecalis
[23] = system: Escherichia coli CCM 3954 (ATCC 25922); test: Antibacterial microdilution broth (EUCAST); format: cell-based; details: Escherichia coli, read-out: MIC Escherichia coli

SMILES: O=C(Nc1ccc2c(c1)B(O)OC2)c1ccc(C(F)(F)F)cn1 [Compound 11, N-(1-hydroxy-1,3-dihydrobenzo[c][1,2]oxaborol-6-yl)-5-(trifluoromethyl)picolinamide]
- MIC [1]: 24.2 µM (≈ 7.81 µg/mL)
- MIC ([2]; 24 h): > 125 µM
- MIC ([2]; 48 h): > 125 µM
- MIC ([3]; 24 h): > 125 µM
- MIC ([3]; 48 h): > 125 µM
- IC50 [4]: > 100 µM
- toxicity to HepG2 up to highest tested concentration [4]: non-toxic
- MIC ([5]; 24 h): > 125 µM
- MIC ([5]; 48 h): > 125 µM
- MIC ([6]; 24 h): > 125 µM
- MIC ([6]; 48 h): > 125 µM
- MIC ([7]; 24 h): > 125 µM
- MIC ([7]; 48 h): > 125 µM
- MIC ([8]; ATCC204305, 24 h): > 125 µM
- MIC ([8]; ATCC204305, 48 h): > 125 µM
- MIC ([9]; 24 h): > 125 µM
- MIC ([9]; 48 h): > 125 µM
- MIC ([10]; 24 h): > 125 µM
- MIC ([10]; 48 h): > 125 µM
- MIC [11]: 9.72 µM (≈ 3.13 µg/mL)
- MIC ([12]; 24 h): > 125 µM
- MIC ([12]; 48 h): > 125 µM
- MIC [13]: 97 µM (≈ 31.2 µg/mL)
- MIC [14]: 97 µM (≈ 31.2 µg/mL)
- MIC ([15]; 24 h): > 125 µM
- MIC ([15]; 48 h): > 125 µM
- MIC ([16]; Middlebrook 7H9, resazurin): 12.1 µM (≈ 3.91 µg/mL)
- MIC ([17]; CCM8077, 24 h): > 125 µM
- MIC ([17]; CCM8077, 48 h): > 125 µM
- MIC ([18]; CCM8363, 24 h): > 125 µM
- MIC ([18]; CCM8363, 48 h): > 125 µM
- melting point: 188.1 to 188.9 °C
- MIC ([19]; 72 h): > 125 µM
- MIC ([19]; 120 h): > 125 µM
- MIC [20]: 24.2 µM (≈ 7.81 µg/mL)
- MIC ([21]; 24 h): > 125 µM
- MIC ([21]; 48 h): > 125 µM
- MIC ([22]; 24 h): > 125 µM
- MIC ([22]; 48 h): > 125 µM
- MIC ([23]; 24 h): > 125 µM
- MIC ([23]; 48 h): > 125 µM

SMILES: O=C(Nc1ccc2c(c1)B(O)OC2)c1ccc(C(F)(F)F)nc1 [Compound 12, N-(1-hydroxy-1,3-dihydrobenzo[c][1,2]oxaborol-6-yl)-6-(trifluoromethyl)nicotinamide]
- MIC [1]: 12.1 µM (≈ 3.91 µg/mL)
- MIC ([2]; 24h incubation): > 500 µM
- MIC ([2]; 48h incubation): > 500 µM
- MIC ([3]; 24h incubation): > 500 µM
- MIC ([3]; 48h incubation): > 500 µM
- IC50 [4]: > 250 µM
- toxicity to HepG2 up to highest tested concentration [4]: non-toxic
- MIC ([5]; 24h incubation): > 500 µM
- MIC ([5]; 48h incubation): > 500 µM
- MIC ([6]; 24h incubation): > 500 µM
- MIC ([6]; 48h incubation): > 500 µM
- MIC ([7]; 24h incubation): > 500 µM
- MIC ([7]; 48h incubation): > 500 µM
- MIC ([8]; ATCC204305, 24h incubation): > 500 µM
- MIC ([8]; ATCC204305, 48h incubation): > 500 µM
- MIC ([9]; 24h incubation): > 500 µM
- MIC ([9]; 48h incubation): > 500 µM
- MIC ([10]; 24 h): > 500 µM
- MIC ([10]; 48 h): > 500 µM
- MIC [11]: 155 µM (≈ 50 µg/mL)
- MIC ([12]; 24h incubation): > 500 µM
- MIC ([12]; 48h incubation): > 500 µM
- MIC [13]: 388 µM (≈ 125 µg/mL)
- MIC [14]: 194 µM (≈ 62.5 µg/mL)
- MIC ([15]; 24h incubation): > 500 µM
- MIC ([15]; 48h incubation): > 500 µM
- MIC [16]: 194 µM (≈ 62.5 µg/mL)
- MIC ([17]; CCM8077, 24h incubation): > 500 µM
- MIC ([17]; CCM8077, 48h incubation): > 500 µM
- MIC ([18]; CCM8363, 24h incubation): > 500 µM
- MIC ([18]; CCM8363, 48h incubation): > 500 µM
- melting point: 227.3 to 229.4 °C
- MIC ([19]; 72h incubation): > 500 µM
- MIC ([19]; 120h incubation): > 500 µM
- MIC [20]: 24.2 µM (≈ 7.81 µg/mL)
- MIC ([21]; 24h incubation): > 500 µM
- MIC ([21]; 48h incubation): > 500 µM
- MIC ([22]; 24h incubation): > 500 µM
- MIC ([22]; 48h incubation): > 500 µM
- MIC ([23]; 24h incubation): > 500 µM
- MIC ([23]; 48h incubation): > 500 µM
